Reference: patent publication US20230115335A1, “PYRAZOLE DERIVATIVES WITH ANTICANCER ACTIVITY” (BOARD OF REGENTS, THE UNIVERSITY OF TEXAS SYSTEM, priority 2021, published 2023)

Key:
[1] = system: CEM cells; test: Phosphatidylserine externalization, Annexin V-FITC/PI assay; type: cell-based, human; conditions: positive control for death
Experimental: FIG. 1. […] CEM cells were treated at the CC50 and twice (2×) that concentration of SSK-3. Note that PS externalization is an early marker of apoptosis. * Indicates P value less than 0.001.
SSK-3 induces significant phosphatidylserine externalization. To corrobotate whether SSK-3 utilizes apoptosis to induce cell death, we measured phosphatidylserine (PS) externalization in SSK-3-treated CEM cells by using the Annexin V-FITC/PI assay (3, 4).

[2] = system: MDA-MB231; test: DNS cytotoxicity assay, MDA-MB-231; type: cell-based; conditions: Homo sapiens, 72 hr incubations, read-out: Cell Line CC50 MDA-MD-231*
Experimental: (§1) Since the non-adherent (free floating) lymphoma/leukemia cell lines divide faster than the adherent cell lines, they were incubated for a shorter period (48 h) of time with the compound.
(§2) Lymphoma/leukemia cell lines, which grow in suspension, were incubated for 48 h with the compounds. […] After treatment, images were acquired and analyzed to determine percentages of live/dead cells and their cytotoxicity. […] The Hs-27 non-cancerous human foreskin fibroblast cell line was used for comparison purposes.

[3] = DNS cytotoxicity assay, MCF10A; type: cell-based; conditions: human, MCF10A non-cancerous cells, 72 hr incubations, read-out: Cell Line CC50 MCF10A*
Experimental: as §1

[4] = DNS cytotoxicity assay, HS-27 non-cancerous fibroblast; type: cell-based; conditions: human, Hs-27 non-cancerous foreskin fibroblast cells; 72 hr incubations; non-cancerous; read-out: Cell Line CC50 HS-27*
Experimental: as §1, §2

[5] = system: Jurkat; test: DNS cytotoxicity assay, Jurkat; type: cell-based, human; conditions: Homo sapiens, Jurkat; Lymphoma-Leukemia; 48 hrs
Description: Using the high throughput Differential Nuclear Staining (DNS) screening assay (Lema et al., Current Cellular Biochemistry 1, 1-14, 2011) 15 pyrazole compounds were synthesized and screened on the human T-cell Acute Lymphoblastic Leukemia CEM cell line (Tables 1 and 2). […] The compounds were synthesized based on a pyrazole backbone structure previously determined to have potent cytotoxic activity (FIG. 5). Several commercial and non-commercial analogues (see Table 3) have been tested and determined that the ones with highest activity have a similar structure circled in FIG. 5. […] SSK-3 has been tested on a few cancer cell lines (see Table 4) and also found to induce programmed cell death via a variety of biochemical assays. […] Since the non-adherent (free floating) lymphoma/leukemia cell lines divide faster than the adherent cell lines, they were incubated for a shorter period (48 h) of time with the compound.
SSK-3 has potent cytotoxic activity against a panel of human cancer cell lines. The cytotoxic activity of SSK-3 was examined by the DNS assay (Lema et al., Current Cellular Biochemistry 1, 1-14, 2011). Lymphoma/leukemia cell lines, which grow in suspension, were incubated for 48 h with the compounds. Since the adherent cells generally divide at a slower rate than the non-adherent cell lines, the MDA-MB231, HCC1419, T47D, COLO205, PANC-1, A-549 adherent cancer cells lines were incubated for 72 h in the presence of the compounds. After treatment, images were acquired and analyzed to determine percentages of live/dead cells and their cytotoxicity. […] The Hs-27 non-cancerous human foreskin fibroblast cell line was used for comparison purposes.

Compound | percentage of PS externalization [1] | CC50 [2] | CC50 at 72 h [3] | CC50 at 72 h [4] | CC50 [5]
OO [H2O2, reference compound] | ~78% |  |  |  | 
O=C(N/N=C/c1ccc(Br)cc1)c1n[nH]c2c1CCC2 [P3C.1] |  | 0.097 µM | 0.42 µM | 0.78 µM | 0.39 µM
O=C(N/N=C/c1cccc2ccccc12)c1n[nH]c2c1CCC2 [P3C.2] |  | 1.83 µM | 0.53 µM | 4.1 µM | 
O=C(N/N=C/c1c(O)ccc2ccccc12)c1n[nH]c2c1CCCC2 [P3C.3] |  | 1.61 µM | 2.16 µM | > 10 µM | 
CCN(CC)c1ccc(/C=N/NC(=O)c2n[nH]c3c2CCC3)cc1 [P3C.4] |  | 2.91 µM | 2.46 µM | > 10 µM | 
